Laboratory results reported in ChEMBL document CHEMBL6153155, “Novel Cyclohexyl Amido Acid Antagonists of Lysophosphatidic Acid Type 1 Receptor for the Treatment of Pulmonary Fibrosis” (ACS Med Chem Lett, 2025).
Values after ≈ are worked out from the molar mass of the structure shown.

Tests used:
[1] = Total Cmax in female C57BL/6J mouse lung at 30 mg/kg, po measured after 24 hrs by UPLC-MS/MS analysis; format: ADME, organism-based
[2] = Metabolic stability in human liver microsomes assessed as intrinsic clearance measured per mg of protein at 0.5 uM measured upto 45 mins in presence of NADPH regenerating system by HPLC-MS/MS analysis; format: ADME, Microsome; settings: read-out: CLH
BSEP = BSEP (Homo sapiens, UniProt O95342); assay: (§1) Inhibition of BSEP in cryopreserved sandwich-cultured human hepatocytes by measuring reduction in TCA biliary clearance using taurocholic acid as substrate at 50 uM relative to control; format: cell-based, Hepatocyte; settings: cryopreserved sandwich-cultured hepatocytes, probe taurocholic acid
[3] = Total AUClast in female C57BL/6J mouse plasma at 30 mg/kg, po measured after 24 hrs by UPLC-MS/MS analysis; format: ADME, organism-based; settings: in vivo
[4] = Half life in female C57BL/6J mouse at 2 mg/kg, iv measured after 24 hrs by UPLC-MS/MS analysis; format: ADME, organism-based; settings: in vivo
[5] = biological target: Lysophosphatidic acid receptor 1 (Mus musculus, UniProt P61793); assay: Antagonist activity at mouse LPA1 transfected in human HeLa cells incubated for 30 mins by FLIPR-based calcium mobilization assay; format: cell-based
Bile salt export pump [6] = biological target: T1, Bile salt export pump (Homo sapiens, UniProt O95342); assay: Inhibition of BSEP in cryopreserved sandwich-cultured human hepatocytes by measuring reduction in TCA biliary clearance using taurocholic acid as substrate; format: cell-based, Hepatocyte
[7] = Tlast in female C57BL/6J mouse plasma at 30 mg/kg, po measured after 24 hrs by UPLC-MS/MS analysis; format: ADME, organism-based; settings: in vivo
[8] = Aqueous solubility of the compound at pH 7.4; format: physicochemical; settings: buffer
[9] = Unbound AUClast in female C57BL/6J mouse lung at 30 mg/kg, po measured after 24 hrs by UPLC-MS/MS analysis; format: ADME, organism-based; settings: in vivo
[10] = Unbound Cmax in female C57BL/6J mouse lung at 30 mg/kg, po measured after 24 hrs by UPLC-MS/MS analysis; format: ADME, organism-based; settings: in vivo
[11] = Total Cmax in female C57BL/6J mouse plasma at 30 mg/kg, po measured after 24 hrs by UPLC-MS/MS analysis; format: ADME, organism-based
[12] = Clearance in female C57BL/6J mouse at 2 mg/kg, iv measured after 24 hrs by UPLC-MS/MS analysis; format: ADME, organism-based; settings: in vivo
[13] = Lipophilicity, logD of compound at pH 7.4 by chromatographic hydrophobicity index method; format: physicochemical; settings: buffer
[14] = Unbound Cmax in female C57BL/6J mouse plasma at 30 mg/kg, po measured after 24 hrs by UPLC-MS/MS analysis; format: ADME, organism-based; settings: in vivo
[15] = Oral bioavailability in female C57BL/6J mouse at 2 mg/kg, iv measured after 24 hrs by UPLC-MS/MS analysis; format: ADME, organism-based; settings: in vivo
[16] = Volume of distribution at steady state in female C57BL/6J mouse at 2 mg/kg, iv measured after 24 hrs by UPLC-MS/MS analysis; format: ADME, organism-based; settings: in vivo, read-out: Vdss
[17] = Unbound AUClast in female C57BL/6J mouse plasma at 30 mg/kg, po measured after 24 hrs by UPLC-MS/MS analysis; format: ADME, organism-based; settings: in vivo
[18] = Total AUClast in female C57BL/6J mouse lung at 30 mg/kg, po measured after 24 hrs by UPLC-MS/MS analysis; format: ADME, organism-based; settings: in vivo
[19] = Tlast in female C57BL/6J mouse lung at 30 mg/kg, po measured after 24 hrs by UPLC-MS/MS analysis; format: ADME, organism-based; settings: in vivo
[20] = Metabolic stability in female C57BL/6J mouse liver microsomes assessed as intrinsic clearance measured per mg of protein at 0.5 uM measured upto 45 mins in presence of NADPH regenerating system by HPLC-MS/MS analysis; format: ADME, Microsome; settings: read-out: CLH
Mus musculus = assay: Inhibition of LPA-stimulated histamine release in male CD1 mouse plasma assessed as effective dose administered as po dose pretreated for 30 mins followed by LPA addition measured after 2 mins by enzyme immunoassay; format: functional; settings: 32 min
Bile salt export pump [21] = biological target: T1, Bile salt export pump; assay: as §1; format: cell-based, Hepatocyte; settings: hepatocytes, 50 µM
[22] = Drug uptake in mouse lung at 30 mg/kg, po measured upto 24 hrs; format: ADME, organism-based; settings: in vivo

Lysophosphatidic acid receptor 1, sequence (P61793 whole entry): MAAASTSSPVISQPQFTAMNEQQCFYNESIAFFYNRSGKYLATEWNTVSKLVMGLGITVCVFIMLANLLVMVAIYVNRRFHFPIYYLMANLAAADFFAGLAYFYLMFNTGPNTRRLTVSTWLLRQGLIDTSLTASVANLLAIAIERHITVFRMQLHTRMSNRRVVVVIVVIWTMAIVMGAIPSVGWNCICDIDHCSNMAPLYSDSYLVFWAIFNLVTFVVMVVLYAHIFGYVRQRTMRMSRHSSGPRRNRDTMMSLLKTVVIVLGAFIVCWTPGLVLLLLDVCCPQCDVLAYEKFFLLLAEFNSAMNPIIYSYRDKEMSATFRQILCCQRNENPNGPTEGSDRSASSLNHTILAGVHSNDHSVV
T1 sequence (O95342 whole entry): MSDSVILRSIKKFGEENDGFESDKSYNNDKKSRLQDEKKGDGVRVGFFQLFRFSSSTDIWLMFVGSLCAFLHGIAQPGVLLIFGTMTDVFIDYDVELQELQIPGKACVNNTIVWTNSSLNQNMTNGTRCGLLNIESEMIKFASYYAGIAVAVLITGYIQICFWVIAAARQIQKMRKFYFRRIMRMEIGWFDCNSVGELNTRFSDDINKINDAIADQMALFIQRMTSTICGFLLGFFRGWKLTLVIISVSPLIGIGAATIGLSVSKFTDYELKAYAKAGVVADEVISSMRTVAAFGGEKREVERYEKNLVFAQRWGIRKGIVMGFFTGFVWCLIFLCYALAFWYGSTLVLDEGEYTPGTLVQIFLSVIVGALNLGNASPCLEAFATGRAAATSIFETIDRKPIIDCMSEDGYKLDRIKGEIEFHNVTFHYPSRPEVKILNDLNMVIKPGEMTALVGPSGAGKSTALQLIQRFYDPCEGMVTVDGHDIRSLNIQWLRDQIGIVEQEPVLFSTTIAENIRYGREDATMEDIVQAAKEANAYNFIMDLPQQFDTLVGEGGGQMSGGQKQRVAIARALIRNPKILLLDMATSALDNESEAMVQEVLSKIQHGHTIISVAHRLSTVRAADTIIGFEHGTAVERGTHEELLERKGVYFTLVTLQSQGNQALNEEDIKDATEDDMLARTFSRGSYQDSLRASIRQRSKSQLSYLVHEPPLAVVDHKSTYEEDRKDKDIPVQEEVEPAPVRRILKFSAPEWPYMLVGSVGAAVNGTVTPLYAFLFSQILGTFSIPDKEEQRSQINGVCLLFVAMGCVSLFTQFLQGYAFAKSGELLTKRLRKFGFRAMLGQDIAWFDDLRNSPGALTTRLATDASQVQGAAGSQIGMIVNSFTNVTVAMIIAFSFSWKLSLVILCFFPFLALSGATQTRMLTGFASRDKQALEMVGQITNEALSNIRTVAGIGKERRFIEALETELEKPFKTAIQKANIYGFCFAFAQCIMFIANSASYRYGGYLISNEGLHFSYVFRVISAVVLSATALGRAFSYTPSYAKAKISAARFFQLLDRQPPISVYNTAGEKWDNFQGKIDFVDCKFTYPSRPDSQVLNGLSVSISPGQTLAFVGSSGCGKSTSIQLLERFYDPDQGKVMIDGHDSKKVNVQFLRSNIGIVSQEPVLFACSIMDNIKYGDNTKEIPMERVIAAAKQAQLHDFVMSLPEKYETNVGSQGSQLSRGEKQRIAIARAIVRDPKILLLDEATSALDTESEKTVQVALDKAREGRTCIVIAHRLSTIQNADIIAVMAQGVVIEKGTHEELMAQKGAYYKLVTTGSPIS
BSEP, sequence (O95342 whole entry): as above

SMILES: Cc1nc(-c2cnn(C)c2NC(=O)O[C@H](C)c2ccccc2Cl)ccc1NC(=O)[C@H]1CCCC[C@@H]1C(=O)O
- Cmax [1]: 7.95 µg/mL
- microsomal CLint at 0.5 µM [2]: 7 µL/min/mg
- inhibition at 50 µM (BSEP): 28%
- AUClast [3]: 80800 h/ng/mL
- half-life [4]: 2.48 h
- IC50 [5]: 0.0251 µM
- IC50 (Bile salt export pump [6]): > 100 µM
- Tlast [7]: 8 h
- solubility [8]: 295 µM (≈ 159 µg/mL)
- fAUClast [9]: 1071 h/ng/mL
- fCmax [10]: 498 ng/mL
- Cmax [11]: 54.2 µg/mL
- clearance [12]: 0.179 L/h/kg
- chromatographic logD [13]: 1.12
- fCmax [14]: 1758 ng/mL
- bioavailability [15]: 49%
- Vd [16]: 0.35 L/kg
- fAUClast [17]: 2621 h/ng/mL
- AUClast [18]: 17100 h/ng/mL
- Tlast [19]: 8 h
- microsomal CLint at 0.5 µM [20]: < 2 µL/min/mg

SMILES: Cc1nc(-c2onc(C)c2CNC(=O)O[C@H](C)c2ccccc2Cl)ccc1NC(=O)[C@H]1CCCC[C@@H]1C(=O)O
- microsomal CLint at 0.5 µM [2]: 7 µL/min/mg
- inhibition at 50 µM (BSEP): 82%
- solubility [8]: 525 µM (≈ 292 µg/mL)
- chromatographic logD [13]: 1.69
- microsomal CLint at 0.5 µM [20]: 11.8 µL/min/mg

SMILES: Cc1noc(-c2ccc(NC(=O)[C@H]3CCCC[C@@H]3C(=O)O)cn2)c1NC(=O)O[C@H](C)c1ccccc1Cl
- Cmax [1]: 4.23 µg/mL
- microsomal CLint at 0.5 µM [2]: 6.3 µL/min/mg
- inhibition at 50 µM (BSEP): 50%
- AUClast [3]: 44200 h/ng/mL
- half-life [4]: 0.69 h
- IC50 [5]: 0.0316 µM
- IC50 (Bile salt export pump [6]): 50.1 µM
- Tlast [7]: 24 h
- solubility [8]: 458 µM (≈ 242 µg/mL)
- ED50 (Mus musculus): 0.1 mg/kg
- fAUClast [9]: 262 h/ng/mL
- fCmax [10]: 139 ng/mL
- Cmax [11]: 26.5 µg/mL
- clearance [12]: 0.418 L/h/kg
- chromatographic logD [13]: 1.52
- fCmax [14]: 749 ng/mL
- bioavailability [15]: 66%
- Vd [16]: 0.24 L/kg
- fAUClast [17]: 1249 h/ng/mL
- AUClast [18]: 8000 h/ng/mL
- Tlast [19]: 8 h
- microsomal CLint at 0.5 µM [20]: 4 µL/min/mg

SMILES: CCC[C@@H](C)OC(=O)Nc1c(C)noc1-c1ccc(NC(=O)[C@H]2CCCC[C@@H]2C(=O)O)c(C)n1
- microsomal CLint at 0.5 µM [2]: 3.1 µL/min/mg
- inhibition at 50 µM (BSEP): 48%
- solubility [8]: 519 µM (≈ 245 µg/mL)
- chromatographic logD [13]: 1.36
- microsomal CLint at 0.5 µM [20]: 3.7 µL/min/mg

SMILES: Cc1nc(-c2onc(C)c2Nc2cncc(C3CC3)n2)ccc1NC(=O)[C@H]1CCCC[C@@H]1C(=O)O
- inhibition (INH) (Bile salt export pump [21]): Not_active

SMILES: CCOc1cncc(Nc2c(C)noc2-c2ccc(NC(=O)[C@H]3CCCC[C@@H]3C(=O)O)c(C)n2)n1
- inhibition (INH) (Bile salt export pump [21]): Not_active

SMILES: Cc1nc(-c2onc(C)c2Nc2cncc(OC(C)C)n2)ccc1NC(=O)[C@H]1CCCC[C@@H]1C(=O)O
- Cmax [1]: 10.3 µg/mL
- microsomal CLint at 0.5 µM [2]: < 2 µL/min/mg
- inhibition at 50 µM (BSEP): 18%
- AUClast [3]: 109000 h/ng/mL
- half-life [4]: 1.96 h
- IC50 [5]: 0.0398 µM
- IC50 (Bile salt export pump [6]): > 100 µM
- Tlast [7]: 8 h
- solubility [8]: 644 µM (≈ 318 µg/mL)
- fAUClast [9]: 3846 h/ng/mL
- fCmax [10]: 1597 ng/mL
- Cmax [11]: 60.6 µg/mL
- clearance [12]: 0.123 L/h/kg
- chromatographic logD [13]: 0.86
- fCmax [14]: 1726 ng/mL
- bioavailability [15]: 45%
- Vd [16]: 0.16 L/kg
- fAUClast [17]: 3105 h/ng/mL
- AUClast [18]: 24800 h/ng/mL
- Tlast [19]: 8 h
- microsomal CLint at 0.5 µM [20]: 11 µL/min/mg

SMILES: Cc1noc(-c2ccc(NC(=O)[C@@H]3CCCC[C@H]3C(=O)O)cc2)c1NC(=O)O[C@H](C)c1ccccc1Cl
- inhibition at 50 µM (BSEP): 66%

SMILES: Cc1cc(NC(=O)[C@H]2CCCC[C@@H]2C(=O)O)c(C)nc1-c1onc(C)c1NC(=O)O[C@H](C)c1ccccc1Cl
- microsomal CLint at 0.5 µM [2]: < 2 µL/min/mg
- inhibition at 50 µM (BSEP): 73%
- solubility [8]: 509 µM (≈ 282 µg/mL)
- chromatographic logD [13]: 1.69
- microsomal CLint at 0.5 µM [20]: 4 µL/min/mg

SMILES: Cc1nc(-c2onc(C)c2NC(=O)O[C@H](C)c2ccccc2)ccc1NC(=O)[C@H]1CCCC[C@@H]1C(=O)O
- Cmax [1]: 17.7 µg/mL
- microsomal CLint at 0.5 µM [2]: 2.3 µL/min/mg
- inhibition at 50 µM (BSEP): 28%
- AUClast [3]: 315000 h/ng/mL
- half-life [4]: 1.81 h
- IC50 [5]: 0.0126 µM
- Drug uptake [22]: Active
- IC50 (Bile salt export pump [6]): 100 µM
- Tlast [7]: 24 h
- solubility [8]: 641 µM (≈ 325 µg/mL)
- ED50 (Mus musculus): 0.1 mg/kg
- fAUClast [9]: 3967 h/ng/mL
- fCmax [10]: 1225 ng/mL
- Cmax [11]: 89.7 µg/mL
- clearance [12]: 0.105 L/h/kg
- chromatographic logD [13]: 1.27
- fCmax [14]: 2189 ng/mL
- bioavailability [15]: 100%
- Vd [16]: 0.2 L/kg
- fAUClast [17]: 7686 h/ng/mL
- AUClast [18]: 57300 h/ng/mL
- Tlast [19]: 8 h
- microsomal CLint at 0.5 µM [20]: 3.5 µL/min/mg

SMILES: Cc1nc(-c2onc(C)c2NC(=O)O[C@H](C)c2ccccn2)ccc1NC(=O)[C@H]1CCCC[C@@H]1C(=O)O
- microsomal CLint at 0.5 µM [2]: 0.3 µL/min/mg
- inhibition at 50 µM (BSEP): 0%
- microsomal CLint at 0.5 µM [20]: 6 µL/min/mg

SMILES: Cc1nc(-c2ncccc2NC(=O)O[C@H](C)c2ccccc2Cl)ccc1NC(=O)[C@H]1CCCC[C@@H]1C(=O)O
- inhibition (INH) (Bile salt export pump [21]): Not_active

SMILES: Cc1noc(-c2ccc(NC(=O)[C@H]3CCCC[C@@H]3C(=O)O)c(F)n2)c1NC(=O)O[C@H](C)c1ccccc1Cl
- microsomal CLint at 0.5 µM [2]: 1 µL/min/mg
- inhibition at 50 µM (BSEP): 50%
- solubility [8]: 555 µM (≈ 302 µg/mL)
- chromatographic logD [13]: 1.5
- microsomal CLint at 0.5 µM [20]: 5.4 µL/min/mg

SMILES: Cc1nc(-c2snc(C)c2NC(=O)O[C@H](C)c2ccccc2Cl)ccc1NC(=O)[C@H]1CCCC[C@@H]1C(=O)O
- microsomal CLint at 0.5 µM [2]: 7.6 µL/min/mg
- inhibition at 50 µM (BSEP): 64%
- solubility [8]: 503 µM (≈ 280 µg/mL)
- chromatographic logD [13]: 1.55
- microsomal CLint at 0.5 µM [20]: 7.6 µL/min/mg

SMILES: Cc1nc(-c2onc(C)c2Nc2cncc(OC3CC3)n2)ccc1NC(=O)[C@H]1CCCC[C@@H]1C(=O)O
- inhibition (INH) (Bile salt export pump [21]): Not_active

SMILES: CCNc1cncc(Nc2c(C)noc2-c2ccc(NC(=O)[C@H]3CCCC[C@@H]3C(=O)O)c(C)n2)n1
- inhibition (INH) (Bile salt export pump [21]): Not_active

SMILES: Cc1noc(-c2ccc(NC(=O)[C@H]3CCCC[C@@H]3C(=O)O)cc2)c1NC(=O)O[C@H](C)c1ccccc1Cl
- microsomal CLint at 0.5 µM [2]: 2.84 µL/min/mg
- inhibition at 50 µM (BSEP): 72%
- chromatographic logD [13]: 1.39
- microsomal CLint at 0.5 µM [20]: 19.5 µL/min/mg

SMILES: Cc1noc(-c2ccc(NC(=O)C3CCCC(C(=O)O)C3)cc2)c1NC(=O)O[C@H](C)c1ccccc1Cl (single isomer, unassigned; diastereomer 1)
- inhibition (INH) (Bile salt export pump [21]): Not_active
